# Measurements from patent US12383505B2, “Nanoparticle for the remodeling of cancer-associated fibroblasts” (University of South Carolina, priority 2021, dated 2025).
# Key:
# [1] = tested on: 4T1-luc lung and liver metastasis; experiment: Post-surgery lung and liver metastasis in orthotopic breast cancer model; type: in vivo, BALB/c mice
# Experimental: (§1) The 4T1 orthotopic model was established following our previous method with a minor modification. All animal experiments were conducted in accordance with NIH regulations and approved by the Institutional Animal Care and Use Committee of the University of South Carolina. 4T1/Luc2 cells (2×10^5 in 20 μl PBS) were injected into the right 4th mammary fat pad of 6-8 weeks female BALB/c mice, and the primary tumor growth was monitored through bioluminescence signal using IVIS imaging system. Two weeks post tumor cell inoculation, the mice were randomly divided into 6 groups (n=10), including control, T-CeNP, T-DOX, free DOX, T-CeNP+T-DOX, and T-CeNP+ Free DOX, and received corresponding neoadjuvant chemotherapy, surgery, and postoperative chemotherapy. In brief, for neoadjuvant chemotherapy, the drugs were intravenously injected at a CeNP dosage of 1 mg/kg and DOX dosage of 3 mg/kg every 3 days for 4 times. Specifically, for the groups of
# (§2) T-CeNP+T-DOX and T-CeNP+ free DOX, T-CeNP was administrated to mice 2 days prior to T-DOX or Free DOX treatment. Two days after the last dose, all mice underwent complete
# surgical removal of the tumors following our previous method. Two days after the surgery, the mice received another 3 times administration of T-CeNP, T-DOX, free DOX, and their combination as post-surgical chemotherapy. At the end of the study (day 24), the mice were sacrificed, and the lung and liver were harvested for ex vivo bioluminescence imaging to examine the metastasis.
# The harvested tumors and major organs were fixed with 4% paraformaldehyde and processed by paraffin sectioning and frozen sectioning. Tissue sections (heart, liver, spleen, and kidney) and lung sections were hematoxylin and eosin (H&E) stained for acute toxicity evaluation and lung metastasis evaluation. […] All the immunofluorescence images were recorded with a fluorescence microscope (Evos™ FL, ThermoFisher Scientific, MA, USA).
# 4T1-luc orthotopic tumor = experiment: Neoadjuvant chemotherapy in orthotopic breast cancer model: primary tumor; type: in vivo, BALB/c mice; details: i.v., CeNP 1 mg/kg, DOX 3 mg/kg, every 3 days for 4 times
# Experimental: as §1, §2
# surgical removal of the tumors following our previous method. Two days after the surgery, the mice received another 3 times administration of T-CeNP, T-DOX, free DOX, and their combination as post-surgical chemotherapy. […]
# NIH3T3 cells = experiment: DOX induced CAF differentiation, immunocytochemistry of α-SMA and fibronectin; type: cell-based, mouse; details: 0.05 μM of free DOX for 48 hours
# Text: (§3) Anthracycline-containing regimens are predominantly used in neoadjuvant chemotherapy for breast cancer. See, J. Wang, T. A. Buchholz, L. P. Middleton, D. C. Allred, S. L. Tucker, H. M. Kuerer, F. J. Esteva, G. N. Hortobagyi, A. A. Sahin, Cancer 2002, 94, 3107; M. S. van Ramshorst, A. van der Voort, E. D. van Werkhoven, I. A. Mandjes, I. Kemper, V. O. Dezentjé, I. M. Oving, A. H. Honkoop, L. W. Tick, A. J. van de Wouw, The Lancet Oncology 2018. However, only a little benefit was achieved from this neoadjuvant chemotherapy in the majority of patients. […] Chen, Y.-A. Lai, Y.-C. Lin, J.-W. Ma, L.-F. Huang, N.-S. Yang, C.-T. Ho, S.-C. Kuo, T.-D. Way, Journal Of Agricultural And Food Chemistry 2013, 61, 11817; N. Chintalaramulu, R. Vadivelu, N. Nguyen, I. Cock, Inflammopharmacology 2020, especially at lower doses. To investigate the relationship between DOX and the differentiation and transdifferentiation of CAF and the potential effect of T-CeNP in inhibiting DOX-induced metastasis, T-CeNP was added to NIH3T3 and 4T1 cells either before or after receiving DOX treatment. The expression of the CAF related proteins, including α-SMA and fibronectin, and metastasis-associated E-cadherin were evaluated by immunocytochemistry. […] The quantitative comparison of their corresponding fluorescence intensities further verified these trends. […]
# 4T1 cells = experiment: DOX induced EMT, immunocytochemistry of E-cadherin; type: cell-based, murine; details: 0.05 μM of free DOX for 48 hours
# Text: as §3
# [2] = ex vivo bioluminescence imaging, day 24
smiles,measurement,setting,value
"COc1cccc2c1C(=O)c1c(O)c3c(c(O)c1C2=O)C[C@@](O)(C(=O)CO)C[C@@H]3O[C@H]1C[C@H](N)[C@H](O)[C@H](C)O1 [free DOX, doxorubicin]",liver metastasis,[1]; [2],inductive effect
same,lung metastasis occurrence,[1]; [2],developed lung metastasis
same,lung metastasis nodules,[1]; nodules on the surface of lung,induced more metastasis nods in the lung
same,primary tumor size,4T1-luc orthotopic tumor,only slightly reduced the size of the primary tumor
same,level of α-SMA and fibronectin,NIH3T3 cells,boosted level of α-SMA and fibronectin
same,E-cadherin expression,4T1 cells,declined E-cadherin expression
